Experimental data from ChEMBL document CHEMBL1201862, “PubChem BioAssay data set” (2004).
Calls of active or inactive are those of the source.

Experiments:
Hexokinase = Hexokinase (Trypanosoma brucei, UniProt Q38C41); assay: Confirmation assay for inhibitors of Trypanosoma brucei hexokinase 1-Analogue-first series. [Related pubchem assays (depositor defined):AID1430, AID1632, AID2516, AID2560, AID2579, AID2600, AID449725, AID492951]; assay type: functional
H4 = assay: Luminescence Cell-Based Dose Response HTS to Identify Activators of 5'UTR Stem-Loop Driven Prion Protein mRNA Translation in H4 Neuroglioblastoma Cells. [Related pubchem assays: 1829 (Project Summary), 1814 (Primary HTS)]; assay type: functional; conditions: Homo sapiens
[1] = Luminescence Cell-Based Dose Response HTS to Identify Activators of Luciferase Translation or Activity in H4 […] Cells. [Related pubchem assays: 1829 (Project Summary), 1814 (Primary HTS)]; assay type: functional
[2] = Luminescence Cell-Based Dose Response HTS to Identify Activators of Luciferase Translation or Activity in H4-C Neuroglioblastoma Cells. [Related pubchem assays: 1829 (Project Summary), 1814 (Primary HTS)]; assay type: functional
[3] = Luminescence Cell-Based Dose Confirmation HTS to Identify Activators of 5'UTR Stem-Loop Driven Alpha-Synuclein mRNA Translation in H4 Neuroglioblastoma Cells. [Related pubchem assays: 1829 (Project Summary), 1814 (Primary HTS)]; assay type: functional
[4] = Luminescence Cell-Based Dose Response HTS to Identify Activators of 5'UTR Stem-Loop Driven Prion Protein mRNA Translation in H4-C Neuroglioblastoma Cells. [Related pubchem assays: 1829 (Project Summary), 1814 (Primary HTS)]; assay type: functional
[5] = Luminescence Cell-Based Dose Retest to Confirm Activators of 5'UTR Stem-Loop Driven Alpha-Synuclein mRNA Translation in H4 Neuroglioblastoma Cells. [Related pubchem assays (depositor defined):AID1813, AID1829]; assay type: functional
[6] = target: Potassium voltage-gated channel subfamily KQT member 2 (Rattus norvegicus, UniProt O88943); assay: retigabine-insensitive KCNQ2 potentiators, concentration-response, dose response, cell-based, retigabine-insensitive compounds (AID 2654); assay type: functional
SUMO-activating enzyme [7] = target: T1, SUMO-activating enzyme (Homo sapiens, UniProt Q9UBT2); assay: SUMOylation inhibitor hit validation, confirmation, SUMOylation inhibitor project, biochemical, AlphaScreen (AID 2018); assay type: functional
T1 sequence (Q9UBE0 whole entry): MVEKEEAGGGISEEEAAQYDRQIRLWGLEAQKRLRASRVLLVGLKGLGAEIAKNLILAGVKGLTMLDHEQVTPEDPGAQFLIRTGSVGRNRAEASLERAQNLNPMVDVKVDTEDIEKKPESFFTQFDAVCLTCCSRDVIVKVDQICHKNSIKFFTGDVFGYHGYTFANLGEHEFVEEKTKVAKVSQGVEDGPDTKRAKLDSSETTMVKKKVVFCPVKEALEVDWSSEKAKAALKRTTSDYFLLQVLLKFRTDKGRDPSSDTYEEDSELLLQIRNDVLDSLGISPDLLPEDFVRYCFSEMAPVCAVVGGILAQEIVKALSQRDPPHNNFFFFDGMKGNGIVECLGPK
T1 sequence (Q9UBT2 whole entry): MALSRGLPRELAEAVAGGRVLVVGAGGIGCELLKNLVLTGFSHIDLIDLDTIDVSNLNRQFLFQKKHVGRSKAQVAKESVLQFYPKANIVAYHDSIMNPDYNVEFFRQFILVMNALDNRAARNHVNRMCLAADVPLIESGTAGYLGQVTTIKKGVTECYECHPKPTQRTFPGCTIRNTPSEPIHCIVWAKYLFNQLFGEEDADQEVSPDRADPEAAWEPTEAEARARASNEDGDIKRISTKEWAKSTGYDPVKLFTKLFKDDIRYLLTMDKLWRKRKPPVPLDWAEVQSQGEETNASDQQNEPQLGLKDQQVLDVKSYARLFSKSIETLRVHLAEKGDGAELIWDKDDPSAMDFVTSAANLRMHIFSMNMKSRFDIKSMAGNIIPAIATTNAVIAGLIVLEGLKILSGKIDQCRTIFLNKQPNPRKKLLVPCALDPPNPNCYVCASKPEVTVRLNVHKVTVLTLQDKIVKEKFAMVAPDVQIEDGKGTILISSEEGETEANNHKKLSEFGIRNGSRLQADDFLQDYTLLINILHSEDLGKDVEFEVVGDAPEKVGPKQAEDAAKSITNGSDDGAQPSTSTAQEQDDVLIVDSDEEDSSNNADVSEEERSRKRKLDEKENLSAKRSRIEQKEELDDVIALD

SUMO-activating enzyme [8] = target: T1, SUMO-activating enzyme; assay: inhibitors of in vitro SUMOylation cascade, primary screen, biochemical, HTRF, uHTS (AID 2006); assay type: protein-complex assay
[9] = target: T2, Probable nicotinate-nucleotide adenylyltransferase (Staphylococcus aureus (strain N315), UniProt P65502); assay type: functional, Staphylococcus aureus subsp. aureus N315;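 as to IC50 Mean: confirmatory dose-response retesting of NadD inhibitor hits first found in an ultra-high-throughput screen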
T2 sequence (P65502 whole entry): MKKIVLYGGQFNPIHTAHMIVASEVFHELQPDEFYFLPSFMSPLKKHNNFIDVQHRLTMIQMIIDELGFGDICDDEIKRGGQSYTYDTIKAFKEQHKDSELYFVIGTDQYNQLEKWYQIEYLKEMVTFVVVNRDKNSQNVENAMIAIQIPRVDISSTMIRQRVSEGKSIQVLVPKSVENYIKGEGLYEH

[10] = target: T2, Probable nicotinate-nucleotide adenylyltransferase; assay type: functional, Staphylococcus aureus subsp. aureus N315; conditions: read-out: IC50_Mean
[11] = target: Induced myeloid leukemia cell differentiation protein Mcl-1 (Homo sapiens, UniProt Q07820); assay type: functional
[12] = target: NACHT, LRR and PYD domains-containing protein 3 (Homo sapiens, UniProt Q96P20); assay: NALP3 inhibitors in yeast, dose response, luminescent (AID 488799); assay type: functional
[13] = target: T3, Voltage-gated N-type calcium channel alpha-1B subunit/Amyloid beta A4 precursor protein-binding family A member 1 (Homo sapiens, UniProt Q00975+Q02410); assay type: protein assay
[14] = target: Hepatocyte nuclear factor 4-alpha (Homo sapiens, UniProt P41235); assay type: functional, cell-based;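 also: biochemical luminescence-based dose-response counterscreen measuring inhibition of HNF4 dimerization, run alongside a screen for blockers of ABHD5–perilipin-5 interaction; split luciferase complementation of HNF4 fusion proteins in cell lysate measuring dimerization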
[15] = target: E3 ubiquitin-protein ligase Mdm2 (Homo sapiens, UniProt Q00987); assay: enhancers of MDM2-luciferase reporter signal, concentration-effect titration, project on inhibitors of MDM2 ubiquitin ligase, cellular assay, luminescent readout, 384-well plate format (AID 1394); assay type: functional;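 also: MDM2 E3 inhibitors raise luminescence so EC50 is for signal enhancement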
[16] = target: T4, Microphthalmia-associated transcription factor (Homo sapiens, UniProt O75030); assay: TRPM1 promoter luciferase signal decrease, dose response, MITF inhibitor project, cell-based, SK-MEL-5, cherry-picked, set 3 (AID 493073); assay type: functional
T4 sequence (O75030 whole entry): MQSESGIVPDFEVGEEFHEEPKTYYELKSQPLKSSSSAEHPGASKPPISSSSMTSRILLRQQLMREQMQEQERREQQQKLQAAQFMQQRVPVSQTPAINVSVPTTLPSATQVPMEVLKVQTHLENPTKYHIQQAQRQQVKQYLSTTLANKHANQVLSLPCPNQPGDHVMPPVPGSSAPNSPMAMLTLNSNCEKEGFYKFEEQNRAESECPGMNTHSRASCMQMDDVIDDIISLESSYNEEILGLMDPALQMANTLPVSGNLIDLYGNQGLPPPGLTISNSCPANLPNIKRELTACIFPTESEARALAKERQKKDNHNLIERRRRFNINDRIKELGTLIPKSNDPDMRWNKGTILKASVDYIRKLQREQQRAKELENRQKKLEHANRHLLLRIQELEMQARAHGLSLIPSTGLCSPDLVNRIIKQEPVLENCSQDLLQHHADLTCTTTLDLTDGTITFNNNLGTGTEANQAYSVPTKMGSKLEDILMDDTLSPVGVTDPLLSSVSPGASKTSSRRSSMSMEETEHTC

[17] = target: T3, Voltage-gated N-type calcium channel alpha-1B subunit/Amyloid beta A4 precursor protein-binding family A member 1; assay type: protein assay; remark: listed apart in the source
[18] = inhibition of K1F phage lysis, E. coli UTI89, bacterial capsule biogenesis inhibitors, alamar blue (AID 488966); assay type: functional
[19] = target: NACHT, LRR and PYD domains-containing protein 1 (Homo sapiens, UniProt Q9C000); assay: NALP1 inhibitors in yeast, dose response, luminescent (AID 488860); assay type: functional
Sequence of NACHT, LRR and PYD domains-containing protein 1 (Q9C000 1-1212 limits assumed): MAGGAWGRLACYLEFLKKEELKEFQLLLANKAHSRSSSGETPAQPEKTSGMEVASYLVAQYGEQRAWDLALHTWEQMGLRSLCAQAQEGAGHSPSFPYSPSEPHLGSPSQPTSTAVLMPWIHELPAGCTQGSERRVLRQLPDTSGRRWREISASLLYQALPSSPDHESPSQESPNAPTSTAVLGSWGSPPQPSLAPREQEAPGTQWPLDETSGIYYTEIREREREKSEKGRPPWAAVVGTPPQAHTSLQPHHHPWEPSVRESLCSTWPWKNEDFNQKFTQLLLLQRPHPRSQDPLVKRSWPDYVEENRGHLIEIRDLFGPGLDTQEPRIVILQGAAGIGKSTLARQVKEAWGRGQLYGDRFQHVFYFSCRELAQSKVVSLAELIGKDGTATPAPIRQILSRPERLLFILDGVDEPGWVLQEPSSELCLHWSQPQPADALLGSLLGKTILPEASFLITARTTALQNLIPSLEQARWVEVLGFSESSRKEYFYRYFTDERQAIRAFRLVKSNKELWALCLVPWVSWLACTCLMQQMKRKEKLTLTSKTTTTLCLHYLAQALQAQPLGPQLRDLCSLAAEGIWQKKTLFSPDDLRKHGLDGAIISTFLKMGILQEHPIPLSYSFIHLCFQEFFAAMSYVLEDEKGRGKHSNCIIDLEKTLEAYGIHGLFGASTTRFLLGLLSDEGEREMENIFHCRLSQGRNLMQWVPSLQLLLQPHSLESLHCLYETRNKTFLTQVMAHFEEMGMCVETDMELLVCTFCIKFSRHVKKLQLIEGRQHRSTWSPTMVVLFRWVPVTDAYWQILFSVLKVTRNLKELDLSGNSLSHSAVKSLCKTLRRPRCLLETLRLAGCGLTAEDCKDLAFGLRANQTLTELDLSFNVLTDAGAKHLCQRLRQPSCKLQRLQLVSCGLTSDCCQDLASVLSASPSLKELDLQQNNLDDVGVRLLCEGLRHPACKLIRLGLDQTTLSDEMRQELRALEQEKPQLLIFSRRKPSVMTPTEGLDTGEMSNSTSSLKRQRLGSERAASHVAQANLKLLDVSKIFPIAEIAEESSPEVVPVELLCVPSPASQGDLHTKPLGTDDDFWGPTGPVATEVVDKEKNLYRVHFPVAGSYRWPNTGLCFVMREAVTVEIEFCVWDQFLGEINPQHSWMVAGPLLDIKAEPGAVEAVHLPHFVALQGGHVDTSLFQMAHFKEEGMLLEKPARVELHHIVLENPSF
Sequence of NACHT, LRR and PYD domains-containing protein 1 (Q9C000 1213-1473 limits assumed): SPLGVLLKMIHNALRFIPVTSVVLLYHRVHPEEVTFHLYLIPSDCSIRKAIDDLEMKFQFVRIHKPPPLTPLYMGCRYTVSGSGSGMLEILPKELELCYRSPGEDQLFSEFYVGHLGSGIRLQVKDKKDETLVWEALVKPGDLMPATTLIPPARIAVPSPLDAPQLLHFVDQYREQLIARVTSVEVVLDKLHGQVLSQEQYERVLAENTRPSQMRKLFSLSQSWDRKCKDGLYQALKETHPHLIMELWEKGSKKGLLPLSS

Saccharomyces cerevisiae = assay: NALP1 inhibitor project selectivity study, Caspase-1/ASC signal blockade IC50 in S. cerevisiae (AID 488863); assay type: functional, organism-based
[20] = target: T5, Alkaline phosphatase, tissue-nonspecific isozyme (Homo sapiens, UniProt P05186); assay: TNAP enzyme activators, dose response, selectivity assay for human IAP activator project, biochemical, TNAP isozyme, human IAP uHTS hits (AID 488886); assay type: functional;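 also: potency of compounds raising TNAP activity as a selectivity check on IAP activators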
T5 sequence (P05186 whole entry): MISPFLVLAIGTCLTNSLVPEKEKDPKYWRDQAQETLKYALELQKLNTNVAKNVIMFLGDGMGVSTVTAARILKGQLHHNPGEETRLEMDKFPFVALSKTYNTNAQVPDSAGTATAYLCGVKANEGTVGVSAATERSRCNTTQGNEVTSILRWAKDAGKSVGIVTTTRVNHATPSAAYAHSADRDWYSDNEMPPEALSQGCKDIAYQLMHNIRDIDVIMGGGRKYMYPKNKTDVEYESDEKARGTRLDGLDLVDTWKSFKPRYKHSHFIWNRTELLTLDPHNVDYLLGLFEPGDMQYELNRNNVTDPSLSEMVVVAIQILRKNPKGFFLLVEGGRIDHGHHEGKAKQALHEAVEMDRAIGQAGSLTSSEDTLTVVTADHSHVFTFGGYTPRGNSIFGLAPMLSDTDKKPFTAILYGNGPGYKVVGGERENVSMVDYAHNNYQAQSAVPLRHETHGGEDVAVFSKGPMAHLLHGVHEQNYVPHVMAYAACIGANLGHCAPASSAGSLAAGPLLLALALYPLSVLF

[21] = target: T6, Intestinal-type alkaline phosphatase (Homo sapiens, UniProt P09923); assay: human intestinal alkaline phosphatase activators, dose response, biochemical, luminescence, uHTS hits (AID 463120); assay type: functional
T6 sequence (P09923 whole entry): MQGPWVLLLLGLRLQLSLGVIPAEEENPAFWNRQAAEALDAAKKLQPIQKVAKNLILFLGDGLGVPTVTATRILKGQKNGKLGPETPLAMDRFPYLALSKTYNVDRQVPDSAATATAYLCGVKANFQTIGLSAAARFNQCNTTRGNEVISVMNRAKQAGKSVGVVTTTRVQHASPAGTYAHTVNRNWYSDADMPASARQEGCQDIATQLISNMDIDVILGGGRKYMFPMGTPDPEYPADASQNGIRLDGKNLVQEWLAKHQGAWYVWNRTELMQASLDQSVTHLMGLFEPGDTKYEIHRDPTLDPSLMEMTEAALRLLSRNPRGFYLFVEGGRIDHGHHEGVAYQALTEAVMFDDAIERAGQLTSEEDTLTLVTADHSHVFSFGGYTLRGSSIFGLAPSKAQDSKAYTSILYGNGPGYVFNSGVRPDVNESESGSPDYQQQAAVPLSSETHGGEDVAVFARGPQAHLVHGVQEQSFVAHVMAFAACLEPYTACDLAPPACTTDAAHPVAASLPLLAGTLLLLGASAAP

[22] = target: T6, Intestinal-type alkaline phosphatase; assay: human IAP activators, dose response, biochemical, luminescent, uHTS hits, set 2 (AID 488817); assay type: functional;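 also: potency of activators that raise enzyme activity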
[23] = target: T7, Intestinal-type alkaline phosphatase (Mus musculus, UniProt P24822); assay: PubChem AID 488875; assay type: functional
T7 sequence (P24822 whole entry): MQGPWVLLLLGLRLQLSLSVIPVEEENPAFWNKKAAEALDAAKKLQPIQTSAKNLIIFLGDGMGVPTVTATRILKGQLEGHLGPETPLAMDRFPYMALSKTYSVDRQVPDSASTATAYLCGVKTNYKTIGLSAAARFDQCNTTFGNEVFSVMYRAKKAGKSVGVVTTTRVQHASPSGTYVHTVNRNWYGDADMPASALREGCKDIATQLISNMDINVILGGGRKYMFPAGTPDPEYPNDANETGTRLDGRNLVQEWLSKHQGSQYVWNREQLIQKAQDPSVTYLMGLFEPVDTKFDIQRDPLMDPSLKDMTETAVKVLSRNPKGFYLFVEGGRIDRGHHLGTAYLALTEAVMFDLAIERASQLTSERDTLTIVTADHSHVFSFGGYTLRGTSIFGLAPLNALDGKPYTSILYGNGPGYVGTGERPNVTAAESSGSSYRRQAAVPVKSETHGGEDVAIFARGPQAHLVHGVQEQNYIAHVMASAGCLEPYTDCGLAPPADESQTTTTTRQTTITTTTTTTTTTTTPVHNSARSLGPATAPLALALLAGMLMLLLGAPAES

[24] = target: T8, Delta-type opioid receptor (Homo sapiens, UniProt P41143); assay: SAR Analysis of Agonists of the DOR Receptor using an Image-Based Assay - Set 3. [Related pubchem assays (depositor defined):AID1777, AID1786]; assay type: functional
T8 sequence (P41143 whole entry): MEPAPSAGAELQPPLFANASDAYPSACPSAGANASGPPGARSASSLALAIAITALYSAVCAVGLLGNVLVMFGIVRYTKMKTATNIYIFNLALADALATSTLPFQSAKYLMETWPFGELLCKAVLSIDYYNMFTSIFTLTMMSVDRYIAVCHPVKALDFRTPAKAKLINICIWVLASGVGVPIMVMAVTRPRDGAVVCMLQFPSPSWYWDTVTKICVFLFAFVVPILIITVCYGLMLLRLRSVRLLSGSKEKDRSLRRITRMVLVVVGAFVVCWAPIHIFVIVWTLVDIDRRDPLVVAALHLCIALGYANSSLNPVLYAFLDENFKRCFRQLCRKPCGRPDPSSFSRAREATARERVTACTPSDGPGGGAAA

Mu-type opioid receptor [25] = target: T9, Mu-type opioid receptor (Homo sapiens, UniProt P35372); assay: SAR Analysis of Agonists of the MOR Receptor using an Image-Based Assay - Set 3. [Related pubchem assays (depositor defined):AID1777, AID1785, AID1786, AID1966, AID2133, AID2136, AID2284, AID2285, AID2352]; assay type: functional
T9 sequence (P35372 whole entry): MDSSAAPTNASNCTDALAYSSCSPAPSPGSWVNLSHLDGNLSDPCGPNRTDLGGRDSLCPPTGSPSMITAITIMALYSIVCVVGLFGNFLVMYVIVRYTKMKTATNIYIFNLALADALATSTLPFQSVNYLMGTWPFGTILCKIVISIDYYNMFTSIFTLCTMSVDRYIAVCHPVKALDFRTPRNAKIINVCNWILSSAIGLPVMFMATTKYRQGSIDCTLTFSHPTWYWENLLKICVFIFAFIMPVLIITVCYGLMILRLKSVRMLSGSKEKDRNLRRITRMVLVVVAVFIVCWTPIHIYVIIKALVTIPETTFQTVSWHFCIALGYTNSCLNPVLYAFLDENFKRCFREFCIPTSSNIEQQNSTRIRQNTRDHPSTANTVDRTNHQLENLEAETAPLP

[26] = target: T10, Kappa-type opioid receptor (Homo sapiens, UniProt P41145); assay: SAR analysis of small molecule agonists of the kappa opioid receptor via a luminescent beta-arrestin assay - Set 3. [Related pubchem assays (depositor defined):AID1777, AID1785, AID1786, AID1966, AID2133, AID2136, AID2284, AID2500]; assay type: functional
T10 sequence (P41145 whole entry): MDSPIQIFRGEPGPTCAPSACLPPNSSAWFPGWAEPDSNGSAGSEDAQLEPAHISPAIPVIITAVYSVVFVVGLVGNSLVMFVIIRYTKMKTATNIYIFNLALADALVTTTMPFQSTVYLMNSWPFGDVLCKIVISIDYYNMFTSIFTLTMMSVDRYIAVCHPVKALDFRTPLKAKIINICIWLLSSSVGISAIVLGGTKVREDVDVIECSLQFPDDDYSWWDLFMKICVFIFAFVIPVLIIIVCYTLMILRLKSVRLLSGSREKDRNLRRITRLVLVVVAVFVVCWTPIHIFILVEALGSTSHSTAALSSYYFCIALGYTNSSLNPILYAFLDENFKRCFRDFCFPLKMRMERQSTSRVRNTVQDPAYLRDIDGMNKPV

[27] = target: T10, Kappa-type opioid receptor; assay: KOR agonist analogs, arrestin-GFP redistribution, SAR follow-up, imaging, image-based, set 3 (AID 488833); assay type: functional
[28] = target: T7, Intestinal-type alkaline phosphatase; assay: PubChem AID 488874; assay type: functional
[29] = target: T10, Kappa-type opioid receptor; assay: SAR analysis of Antagonists of the Kappa Opioid Receptor (KOR) using an Image-Based Assay - Set 3. [Related pubchem assays (depositor defined):AID1777, AID1785]; assay type: functional
[30] = target: T8, Delta-type opioid receptor; assay: SAR Analysis of Antagonists of the DOR Receptor using an Image-Based Assay - Set 3. [Related pubchem assays (depositor defined):AID1777, AID1785]; assay type: functional
Mu-type opioid receptor [31] = target: T9, Mu-type opioid receptor; assay: SAR Analysis of Antagonists of the MOR Receptor using an Image-Based Assay - Set 3. [Related pubchem assays (depositor defined):AID1777, AID1785, AID1786, AID1966, AID2133, AID2136, AID2284, AID2285, AID2420]; assay type: functional
[32] = target: T10, Kappa-type opioid receptor; assay: SAR analysis of small molecule antagonists of the kappa opioid receptor via a luminescent beta-arrestin assay - Set 3. [Related pubchem assays (depositor defined):AID1777, AID1778, AID1785, AID1786, AID1966, AID2133, AID2136, AID2285, AID2495]; assay type: functional
Bcl-2-like protein 10 = Bcl-2-like protein 10 (Homo sapiens, UniProt Q9HD36); assay: displacers of TR3 peptide from Bcl-B, primary screen, selectivity assay for Bfl-1 inhibitor project, biochemical, fluorescence polarization, FITC-TR3 peptide (AID 748);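 also: fluorescence polarization from a fluorescein-labelled TR3 peptide binding purified Bcl-B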
[33] = target: Signal transducer and activator of transcription 3 (Homo sapiens, UniProt P40763); assay: STAT3 activators, late-stage profile, late-stage follow-up, cell-based, STAT1 reporter, BCL3 qPCR, cytotoxicity, panel member STAT3 Activation (AID 2049)

COc1ccc(C(=O)N2CCC(=O)c3ccc(Cl)cc32)cc1
IC50 (Hexokinase): > 25 µM (inactive)

O=C1CCCCCN1Cc1nnc(SCc2nc3ccccc3s2)n1-c1ccccn1
EC50 (H4): 80.9 µM (inconclusive) | EC50 [1]: 25 µM (active) | EC50 [2]: 0.207 µM (active) | EC50 [3]: 1.08 µM (active) | EC50 [4]: 1.89 µM (active) | EC50 [5]: > 195 µM (inactive)

O=C(Nc1ccc(Cl)nc1)Nc1cccc(F)c1
EC50 [6]: 2.81 µM (active)

N#Cc1c(NC(=O)CSc2ncnc3sccc23)oc(-c2ccco2)c1-c1ccco1
IC50 (SUMO-activating enzyme [7]): 2.82 µM (active) | IC50 (SUMO-activating enzyme [8]): 22.9 µM (active) | IC50 [9]: 8.79 µM (active) | IC50 [10]: 27.8 µM (active) | IC50 [11]: 4.69 µM (active)

CCCCCC(=O)N1CCN(CC/N=C/C2=C(O)CC(c3ccco3)CC2=O)CC1 (stereo not given)
IC50 [12]: 7.3 µM (active)

COCCNC(=O)/C(C#N)=C/c1cccc(/C=C(\C#N)C(=O)NCCOC)c1
IC50 [13]: > 50 µM (inactive) | IC50 [14]: 1.51 µM (active) | EC50 [15]: 0.94 µM (active) | AC50 [16]: 12.7 µM (active) | IC50 [17]: > 56.8 µM (not active)

COc1ccc(NC(=O)/C=C2\SC(=O)NC2=O)cc1
IC50 [18]: > 150 µM (active)

Cc1cc(Cl)c(OCCCCN2CCOCC2)c(Br)c1
IC50 [19]: > 100 µM (inactive) | IC50 (Saccharomyces cerevisiae): > 100 µM (inactive)

Cc1cccc(NS(=O)(=O)c2cccc(C(=O)NNC(=O)c3ccccc3O)c2)c1
EC50 [20]: 0.705 µM (active) | EC50 [21]: 16.1 µM (active) | EC50 [22]: 23.5 µM (active) | EC50 [23]: > 100 µM (inactive)

Clc1ccccc1CSc1nnc(-c2ccccn2)n1Cc1cccs1
EC50 [24]: > 32 µM (inactive) | EC50 (Mu-type opioid receptor [25]): > 32 µM (inactive) | EC50 [26]: 10.1 µM (inactive) | EC50 [27]: 4.06 µM (active)

COc1ccccc1C1=NN(C2=NN=C(N)Cc3ncnn32)C(O)(C(F)(F)F)C1 (stereo not given)
EC50 [20]: 11.7 µM (active) | EC50 [21]: 7.06 µM (active) | IC50 [28]: 42.2 µM (active) | EC50 [22]: 9.66 µM (active)

CC(C)N(CCNC(=O)c1ccc(CNS(=O)(=O)c2ccc(Br)cc2)cc1)Cc1ccccc1
IC50 [29]: 0.421 µM (active) | IC50 [30]: > 32 µM (inactive) | IC50 (Mu-type opioid receptor [31]): 3.22 µM (active) | IC50 [32]: 1.32 µM (active)

COc1ccc(OC)c(NC(=O)CCN2CCC(C)CC2)c1
IC50 (Bcl-2-like protein 10): > 100 µM (inactive)

COc1ccccc1NC(=O)c1cc(-c2ccccc2)on1
EC50 [33]: 9.62 µM (active)
